Measured values from patent US20220362174A1, “Use of R-enantiomer Beta2-agonists for prevent and treatment of pulmonary inflammation and inflammatory remodeling for reduced adverse effects” (priority 2019, published 2022).
Entries after “also recorded” stand apart in the source; their conditions may differ.

Assays:
OVA induced asthma mice [1] = assay: Combination therapy of ipratropium with RS-, R- and S-salbutamol: airway resistance in response to methacholine; assay type: in vivo; settings: for increase in airway resistance after treatment: response to methacholine, OVA + Saline 445%
Method: OVA sensitized/challenged asthma model Mice were sensitized and challenged with ovalbumin (OVA) or normal saline. […] On days 21, 22 and 23, the mice were challenged with 1% OVA in saline (0.01 g/mL) for 20 min via. a nebulizer (PART Turbo boy). […] In vivo airway responsiveness to methacholine (Mch) was assessed on day 28 in conscious, freely moving, spontaneously breathing mice by a whole-body plethysmography (Buxco Electronics Inc.). […] Before Mch challenge, a 20 μL drug aerosol or saline was given to the mice because of the short-acting bronchodilating effect of terbutaline. The degree of bronchoconstriction was expressed as enhanced pause (Penh), a calculated dimensionless value that correlates with measurement of airway resistance, impedance, and intrapleural pressure. […] Methods used were similar as mentioned above. Nebulized aerosol of saline, Methacholine 2 mg/ml (low dose) or 10 mg/ml (high dose) were given via inhalation to OVA induced asthma mice.

[2] = test system: OVA-sensitized/OVA-challenged mice; assay: Airway responsiveness to methacholine by whole-body plethysmography (Penh) in OVA sensitized/challenged asthma model; assay type: in vivo
Method: (§1) OVA sensitized/challenged asthma model Mice were sensitized and challenged with ovalbumin (OVA) or normal saline. Briefly, mice were sensitized by intraperitoneal (i.p.) injection of 0.2 mL of 2% aluminum hydroxide (ALUM) gel containing 10 μg of OVA antigen on days 0 and 14. On days 21, 22 and 23, the mice were challenged with 1% OVA in saline (0.01 g/mL) for 20 min via. a nebulizer (PART Turbo boy). On day 26, a 20 min nebulized OVA challenge with 5% OVA in saline (0.05 g/mL) was conducted. The control group received 0.2 mL of saline with 2% ALUM administered intraperitoneally on days 0 and 14 before receiving 20 min nebulized normal saline without OVA on days 21, 22, 23 and 26.
In vivo airway responsiveness to methacholine (Mch) was assessed on day 28 in conscious, freely moving, spontaneously breathing mice by a whole-body plethysmography (Buxco Electronics Inc.). Mice were challenged with aerosolized saline or increasing concentrations of Mch (2, 10, 20 mg/mL) administered by an ultrasonic nebulizer for 2 min. Before Mch challenge, a 20 μL drug aerosol or saline was given to the mice because of the short-acting bronchodilating effect of terbutaline. The degree of bronchoconstriction was expressed as enhanced pause (Penh), a calculated dimensionless value that correlates with measurement of airway resistance, impedance, and intrapleural pressure. Penh values were recorded and averaged for 4 min after each nebulization challenge.

[3] = test system: OVA-sensitized/OVA-challenged mice; assay: Whole blood analysis and eosinophils counts in BAL fluid; assay type: in vivo; settings: OVA asthma mice after repeated inhalation
Method: as §1
After Methacholine challenge, mice were anesthetized, blood was collected for hematology analysis. Part of the collected blood was transferred to a heparinized Eppendorf tube, gently mixed and centrifuged under 845×g at 4° C. for 10 min to isolate plasma specimen for further analysis. Broncho alveolar lavage (BAL) was performed on the right lung using 0.3 mL of phosphate buffered saline (PBS) for four times. The saline was instilled into the lungs and allowed to equilibrate for 30 s before recovery, after centrifugation supernatants were stored at −80° C. for further cytokines analysis while cell pellet was suspended in 0.5 ml PBS and the eosinophils counts were performed using Wright's stain. Then all the organs (liver, right lung lobe, spleen, kidneys, heart, brain) were excised surgically and washed totally with ice-cold PBS to clear the blood and then blotted dry with filter paper. These tissue specimens were then accurately weighted and stored at −80° C. for detecting the drug distribution by LC-MS/MS. White blood cell (WBC) counts and differential WBC counts were analyzed using a ProCyte Dx Hematology Analyzer (IDEXX Laboratories) in 4 h after blood collection.

[4] = test system: OVA-sensitized/OVA-challenged mice; assay: Lung histopathology (H&E, PAS, Masson) after R-, S-, rac-terbutaline; assay type: in vivo
Method: as §1
(§2) Left lung tissue was obtained for histopathology and fixed in 10% formalin for 24 h, followed by paraffin-embedded and then were sectioned at 4 μm for routine staining with hematoxylin and eosin (H&E, Solarbio, Beijing, China), or with periodic acid-Schiff (PAS, Solarbio, Beijing, China), or submitted to Masson's trichrome staining (Baso, Zhuhai, China). Images of the stained lung sections were obtained by an Axisplus image-capturing system (Zeiss, Germany) and then a minimum of 3 bronchi (luminal diameter, 150-500 μm) were analyzed per mice for various parameters using an image analyzing computer system (IPP) by pathologists blinded to grouping. Histological score, airway smooth muscle thickness, PAS score (goblet cells hyperplasia), and collagen deposition were evaluated by a semi-quantitative scoring method.

p38 MAPK = assay: Western blot of lung tissue: p38 MAPK phosphorylation; assay type: in vivo, mice; settings: vs OVA group
Method: as §1
Total protein from lung tissue was extracted according to the guidelines of manufacturer (Beyotime, China) and the concentrations were determined by BCA assay (Pierce). Primary antibodies against p38 MAPK (CST #8690), p-p38 MAPK (Thr180/Tyr182, CST #4511), NF-κB p65 (GeneTex #GTX102090), p-NF-κB p65 (S536, CST #3033) and GAPDH (Affinity #AF7021) as a standard were purchased and used.

[5] = test system: macrophages from the peritoneal fluid; assay: LPS-induced proliferation and polarization of macrophages from the peritoneal fluid (sepsis); assay type: in vivo; settings: in comparison of sepsis condition
From the text: Macrophage activation and proliferation was considered to be the key step of initiation and development of sepsis. In one embodiment, LPS (PAMPs from bacteria) induced a proliferation and polarization of macrophages from the peritoneal fluid. […] These inhibitory effects can be blocked by using specific β2-recepter blocker.

BALB/c mice [6] = assay: Survival study after LPS challenge (sepsis); assay type: in vivo; settings: for Percent of death after LPS challenges, 12 h: Saline + LPS 0; for Percent of death after LPS challenges, 24 h: Saline + LPS 36.4; for Percent of death after LPS challenges, 36 h: Saline + LPS 72.7; for Percent of death after LPS challenges, 48 h / Percent of death after LPS challenges, 72 h / Percent of death after LPS challenges, 144 h: Saline + LPS 90.9
Method: Treatment were given intraperitoneally for 3 consecutive days. One hour after the 3rd day treatments, LPS (15 mg/kg) was administered intraperitoneally. The animals were monitored. Survival rate was then recorded every 12 h for 144 hours.

BALB/c mice [7] = assay: Lung function measurements 6 hours after LPS (Buxco); assay type: in vivo; settings: 5.0 mg/kg
Method: Methods: Survival study: […] Treatment were given intraperitoneally for 3 consecutive days. […] The animals were monitored. Survival rate was then recorded every 12 h for 144 hours. The lung functions were measured with using Buxco system (Buxco Electronics, USA). After a brief acclimation to the chamber, the mice received an initial baseline challenge of saline. Measures were made at 6 hours after administration of LPS, including tidal volume and Penh which is an indication of airway resistance.

OVA induced asthma mice [8] = assay: Combination therapy of ipratropium with R- and S-salbutamol: lung histopathology (Masson, PAS); assay type: in vivo
Method: as §2
Methods used were similar as mentioned above. Nebulized aerosol of saline, Methacholine 2 mg/ml (low dose) or 10 mg/ml (high dose) were given via inhalation to OVA induced asthma mice.

[9] = test system: LPS-induced RAW264.7 cells; assay: M1/M2 macrophage polarization by flow cytometry; assay type: cell-based; settings: pretreated prior to LPS 100 ng/mL; basal 24.7%, LPS 59.2%; (R)-salbutamol 10 μM
Method: (§3) Macrophages were treated without or with (R)/(S)-salbutamol for 1 h prior to LPS stimulation and subsequently incubated for 12 h. […] The fluorescence of the oxidized product (2′,7′-dichlorofluorescein, DCF) was assessed using an LSM710 Laser Scanning Confocal Microscope (Carl Zeiss, Jena, Germany). The concentration of NO in the culture supernatant was measured by assaying the concentrations of nitrite (a stable NO breakdown product) using the Griess assay (Beyotime, Shanghai, China), according to the manufacturer's instructions. The intracellular NO level was detected using the NO-sensitive fluorescence probe DAF-FM DA (Sigma, St. Louis, Mo., USA) (24). Cells were labeled with DAF-FM DA (10 μM) at 37° C. for 30 min and were gently washed three times with PBS. Fluorescence was detected using a LSM710 Laser Scanning Confocal Microscope (Scale bars, 100 μm) (Carl Zeiss, Jena, Germany).
Macrophages M1 (F4/80+/CD11c+/CD206−) and M2 (F4/80+/CD11c−/CD206+) polarization were analyzed using flow cytometry.

[10] = test system: LPS-induced macrophage RAW264.7 cells; assay: M1 macrophage cytokines (TNF-α, IL-1β, MCP-1) by ELISA; assay type: cell-based; settings: LPS challenge
Method: as §3
To confirm that M1 polarization was predominant over M2 polarization after stimulation with LPS, the levels of typical M1 macrophage cytokines (i.e., TNF-α, IL-1β and MCP-1) were quantified using ELISA; these cytokines are mainly synthesized by macrophages and play an important role in inflammatory diseases (35,36). This invention disclosed that TNF-α […] from 2.62-fold to 0.75-fold of control levels following LPS stimulation (FIG. 8A). IL-1β is a hallmark of many chronic inflammatory diseases in humans and is reportedly associated with acute phase reactions (35,37). […] We conclude that LPS is likely to lead to M1 polarization but not M2 polarization.

[11] = test system: LPS-induced RAW264.7 cells; assay: NO production (DAF-FM DA probe, Griess assay); assay type: cell-based; settings: LPS-induced cells
Method: as §3
In addition, the concentration of NO in the culture supernatant was measured by assaying the concentrations of nitrite (a stable NO breakdown product) using the Griess assay. […] To investigate (R)-salbutamol role on the level of iNOS, the mRNA and protein levels of iNOS were determined.

[12] = test system: LPS-induced RAW264.7 cells; assay: Intracellular ROS (DCFH-DA); assay type: cell-based; settings: LPS-induced cells
Method: as §3
LPS can promote cell apoptosis through mitochondrial dysfunction, and mitochondria are the major source of ROS.

CC(C)(C)NCC(O)c1ccc(O)c(CO)c1 (racemic) [RS salbutamol, salbutamol]
increase in airway resistance after treatment (OVA induced asthma mice [1]): 214%

CC(C)(C)NCC(O)c1cc(O)cc(O)c1 (racemic) [rac-terbutaline, terbutaline]
airway bronchoconstriction/hyperactivity (Penh) in response to increased doses of Mch ([2]; Mch 2, 10, 20 mg/mL aerosol, rac-ter at double dose of R-ter): much less effect
baseline Penh value (baseline airway reactivity) ([2]; exposure to saline, after 7 days inhalation pretreatment, OVA group 0.80±0.12, Control group 0.55±0.08, rac-terbutaline at double molar amount): significantly reduce
per cent of eosinophil counts in blood and BALF ([3]; listed as RS(rac)-terbutaline): significantly higher
per cent of eosinophil counts in blood and BALF ([3]; listed as racemic terbutaline): less but similar effects as S-terbutaline
PAS stain of lung tissues: inflammatory and histopathological changes, collagen deposition ([4]; Example 3, vs model): significant less beneficial effects
degree of inflammatory cell infiltration (H&E, histological score) ([4]; rac-terbutaline at double dose): ameliorated
PAS and Masson staining: subepithelial matrix glycoproteins, goblet cell hyperplasia, collagen deposition ([4]; vs OVA group): much less or not effective
p38 MAPK phosphorylation (ratio of phosphorylated to total p38 MAPK) (p38 MAPK): much less effects

OCc1cc([C@H](O)CNCCCCCCOCCCCc2ccccc2)ccc1O [(S)-salmeterol, reference compound]
polarized M1 macrophages or M2 macrophages [5]: further increased

C[C@@H]1C[C@H]2[C@@H]3CCC4=CC(=O)C=C[C@]4(C)[C@@]3(F)[C@@H](O)C[C@]2(C)[C@@]1(O)C(=O)CO [Dexamethasone, dexamethasone, reference compound]
Percent of death after LPS challenges, 12 h (BALB/c mice [6]; 5.0 mg/kg + LPS): 0%
Percent of death after LPS challenges, 24 h (BALB/c mice [6]; 5.0 mg/kg + LPS): 90.9%
Percent of death after LPS challenges, 36 h (BALB/c mice [6]; 5.0 mg/kg + LPS): 90.9%
Percent of death after LPS challenges, 48 h (BALB/c mice [6]; 5.0 mg/kg + LPS): 100%
Percent of death after LPS challenges, 72 h (BALB/c mice [6]; 5.0 mg/kg + LPS): 100%
Percent of death after LPS challenges, 144 h (BALB/c mice [6]; 5.0 mg/kg + LPS): 100%
Tidal volume (BALB/c mice [7]; LPS + saline 0.13 ± 0.03): 0.15 ± 0.04 mL
Penh (BALB/c mice [7]; LPS + saline 1.31 ± 0.40): 1.01 ± 0.46

CC(C)(C)NC[C@@H](O)c1ccc(O)c(CO)c1 [S-salbutamol, (S)-salbutamol, reference compound]
increase in airway resistant in response to methacholine (in words) (OVA induced asthma mice [1]): much greater; also recorded: further enhance the airway response to methacholine
increase in airway resistance after treatment (OVA induced asthma mice [1]): 486%
PAS staining: goblet cell hyperplasia, mucus over secretion, airway edema (OVA induced asthma mice [8]; vs OVA model): further worsen the inflammatory condition
Masson staining: collagen deposition, wall thickness of bronchiole and vascular vessels (OVA induced asthma mice [8]; vs ova (model) group): further worsens the inflammatory conditions and further increased the wall thickness
prevalence of M1 macrophages (F4/80+/CD11c+/CD206−) [9]: facilitated macrophage polarization
release and expression of cytokines in LPS induced M1 macrophages (in words) [10]: had the opposite effects
release and expression of cytokines in LPS induced M1 macrophages (in words) ([10]; listed as S-albuterol): increased the release of cytokines
production/levels of NO (in words) [11]: increased
production/levels of ROS (in words) [12]: increased
Percent of death after LPS challenges, 12 h (BALB/c mice [6]; 0.5 mg/kg + LPS): 0%
Percent of death after LPS challenges, 24 h (BALB/c mice [6]; 0.5 mg/kg + LPS): 36.4%
Percent of death after LPS challenges, 36 h (BALB/c mice [6]; 0.5 mg/kg + LPS): 90.9%
Percent of death after LPS challenges, 48 h (BALB/c mice [6]; 0.5 mg/kg + LPS): 90.9%
Percent of death after LPS challenges, 72 h (BALB/c mice [6]; 0.5 mg/kg + LPS): 90.9%
Percent of death after LPS challenges, 144 h (BALB/c mice [6]; 0.5 mg/kg + LPS): 90.9%
rate of mortality/death after LPS challenge (in words) (BALB/c mice [6]; in comparison of LPS challenged group without pretreatment (mortality 90.9%)): same rate of death at 48 hours; also recorded: higher rate of death at 36 h
